Data from US20190269705A1, “METHODS AND MATERIALS FOR TREATING GRAFT VERSUS HOST DISEASE” (Regents of the University of Minnesota, priority 2017, published 2019).
“Also recorded” adds a separate entry of the source.

Key:
[1] = test system: Th1 cells; assay: 3H-2-deoxyglucose uptake and ECAR, Th1; assay type: cell-based, mouse
Protocol: Glucose uptake assays were performed as described elsewhere (see, e.g., Macintyre et al., 2014 Cell Metab. 20(1):61-72). Naïve CD4+ T cells were differentiated into Th1 and Th17 cells, in triplicate, in the presence or absence of CB839 over 5 days and spun down after reisolation using CD4 kit as previously described. Cells were washed 2× in PBS, counted, then rested in 1 mL Kreb's Ringers HEPES (KRH) for 10 minutes. Cells were spun and resuspended to 5×10^5 cells/50 uL KRH for glucose uptake assay. Briefly, cells were […]. Cells incubated for 10 minutes at 37° C. Immediately after incubation, reaction was quenched with 200 μM phloretin (Calbiochem, Cat #: 524488). Cells were spun, washed, and then resuspended in scint fluid for counting on Beckman-Coulter scintillation counter. Pathway analysis of altered metabolites was performed using Metaboanalyst 3.0 (metaboanalyst. ca/faces/home.xhtml).
Experiments were carried out on Agilent Seahorse XF96 bioanalyzer (Agilent). Briefly, wild type CD4+ cells were isolated as previous and activated for 3 days on CD3/CD28 as previously described, or skewed to Th1 and Th17 subsets as described above. T cells were spun onto XF96 Cell-Tak (BD Bioscience, Cat #: 354240) coated plates and rested in Seahorse XF RPMI 1640 media supplemented with glutamine, sodium pyruvate, and glucose. For immediate metabolic response, CB839 and UK5099 were injected separately or in combination, and OCR and ECAR measured.
Glucose uptake assays were performed as previously described (Macintyre et al.,2014). Naïve CD4+ T cells were differentiated into Th1 and Th17 cells, in triplicate, in the presence or absence of CB839 over five days and spun down after reisolation using CD4 kit as previously described. At day 3 and 5, cells were removed, washed twice in PBS, counted, then rested in 1 mL Kreb's Ringers HEPES (KRH) for at least 10 minutes. Cells were spun and resuspended to 5×10^5 cells/50 μL KRH for glucose uptake assay. Briefly, 3H-2-deoxyglucose was suspended in KRH bubble layered in oil, and cells were added to this bubble. Cells were incubated for 10 minutes at 37° C. Immediately after incubation, reaction was quenched with 200 μM phloretin (Calbiochem, Cat #: 524488). Cells were spun, washed, and then resuspended in scintilation fluid for counting on Beckman-Coulter scintillation counter (3H, 1 min/sample read).
Experiments were carried out on Agilent Seahorse XF96 bioanalyzer (Agilent). Briefly, wild type CD4+ cells were isolated as previous and activated for 3 days on αCD3/CD28 coated plates as previously described, or skewed to Th1 and Th17 subsets as described above. T cells were isolated and spun onto XF96 Cell-Tak (BD Bioscience, Cat #: 354240) coated plates and rested in Seahorse XF RPMI 1640 media supplemented with glutamine, sodium pyruvate, and glucose. For immediate metabolic response, 1 μM CB839 and 5 μM UK5099 (Cat #: PZ0160-5MG) were injected separately or in combination, and OCR and ECAR measured. For activation response, 1 uM CB839 was injected into IL-7 maintained naïve CD4+ T cells in seahorse medium and allowed to incubate for 20 minutes, followed by soluble αCD3/CD28 injection.

[2] = test system: Th1 cells; assay: CD4 T cells in Th1 skewing conditions, flow cytometry
[3] = Th1, day 5, listed as GLS inhibitor

For `O=C(Cc1cccc(OC(F)(F)F)c1)Nc1ccc(CCCCc2nnc(NC(=O)Cc3ccccn3)s2)nn1` [CB839], the glucose uptake ([1]; Th1, day 5) was “increased”, the “media acidification (ECAR, glycolytic flux)” value ([1]; Th1, day 5) was “increased” and the glucose uptake [1, 3] was “increased levels of glucose uptake and glycolytic flux”. For the same molecule, the “media acidification (ECAR, glycolytic flux)” value [1, 3] was “increased levels of glucose uptake and glycolytic flux”, the glucose uptake ([1]; Th1, day three) was “reduced” and the Myc protein ([2]; Th1) was “modestly increased Myc”. The “H3K27 tri-methylation, initially” value ([2]; Th1, Day 3) was “increased H3K27 tri-methylation”, the proliferation ([2]; Th1, after three days in culture) was “impaired proliferation” and the “ROS (DCFDA)” value ([2]; Th1, day 5) was “ROS increased”. For the same molecule, the “expression of KLRG1 and PD1” value ([2]; Th1, day 5) was “increased expression of KLRG1 and PD1”, the “global H3K27 trimethylation” value ([2]; Th1, day 5, normalized to total H3) was “decreased” and the phospho-S6 ([2]; Th1, day 5, with IL2) was “increased phosphor-S6; also recorded: increased phospho-S6”. The “ROS (DCFDA)” value ([2]; Th1, day 5, listed as CD839) was “increased ROS”, the “global H3K4 trimethylation” value ([2]; Th1, day five) was “decreased; also recorded: reduced” and the proliferation ([2]; Th1, day five) was “partially recovered proliferation by day five”. For the same molecule, the “total rRNA levels per cell” value ([2]; Th1, day five) was “increased”, the “H3K27 methylation in the absence of IL2” value ([2]; Th1 skewing conditions, no IL2) was “hypermethylated H3K27” and the “Th1 cytokine production and differentiation” value ([2]; Th1 skewing, 5 days, CB839 vs vehicle) was “increased; also recorded: appeared to increase Th1 cytokine secretion”. The “induction of Treg (Foxp3)” value ([2]; under Th1 conditions) was “failed to do so”.
